Data as given in PMC10674446, “Synthesis and Structural Characterization of Novel Dimers of Dipyridothiazine as Promising Antiproliferative Agents” (Molecules, 2023).
Like-named read-outs stand apart in the source and are kept apart here.

Columns and labels:
[1] = test system: normal L6 rat myoblasts; assay: MTT cell viability assay, normal L6 cells; assay type: cell-based; conditions: Rattus norvegicus, Myoblast, mean ± SD, n = 3, read-out: Anticancer Activity IC50, L6
Experimental: (§1) MCF7, SW480 and normal L6 muscle cells were bought from the ATCC company, USA [34]. MCF7 and SW480 adenocarcinoma cell lines were cultured, respectively, using Dulbecco’s Modified Eagle Medium (DMEM with 4.5 g/L glucose; HIMEDIA, Mumbai, India) supplemented with 100 U/mL penicillin, 100 µg/mL of streptomycin and 10% fetal bovine serum (FBS; Cat No. FBSEU500; Tico Europe, Amstelveen, The Netherlands) under standard conditions until the desired confluency was reached. Once the desired cell confluency of 70–80% was observed, the cells were sub-cultured through trypsinization, and the cell count was calculated prior to seeding in the 96-well microplate. Similarly, L6 rat myoblasts were cultured accordingly as normal cell lines to compare against MCF7 and SW480 cell lines during the MTT cell viability assay.
(§2) Cells were seeded in a 96-well microplate at a density of 1 × 10^4 cells per well and were allowed to adhere to the wells overnight. Subsequently, the cells were treated with varying concentrations of 12 compounds (1a,b,c–4a,b,c) along with doxorubicin as the positive control. The cells were exposed to the tested substances at concentrations ranging from 50, 25, 10, 5 and 1 μM. The treatment was conducted over three periods of 24 h, 48 h and 72 h, respectively. After the treatment period, thiazolyl blue tetrazolium bromide (MTT) solution was added to each well at a concentration of 0.5 mg/mL and incubated for 3 h in a 37 °C incubator supplemented with 5% CO2. Lastly, the spent MTT medium was removed and DMSO was added to the wells, where the purple formazan crystals were solubilized, and the intensity of the purple hue was spectrophotometrically measured at 570 nm.
(§3) All values were represented as means ± standard deviations (n = 3). The data were statistically analyzed using GraphPad Prism 10.1.0, where the IC50 values of each compound treated on different cell lines at different time points were obtained by extrapolating the logarithmic dose–response curve. The IC50 values were further subjected to one-way ANOVA analysis along with the post hoc test to determine the statistical significance between the treatment groups and the negative control (untreated cells).

[2] = test system: MCF7 breast cancer; assay: MTT cell viability assay, MCF7; assay type: cell-based, human; conditions: for Selectivity Index (SI), MCF-7: SI = IC50 L6 / IC50 MCF-7; for IC50: Homo sapiens, MCF7, mean ± SD, n = 3, read-out: Anticancer Activity IC50, MCF-7
Experimental: as §1
(§4) Cells were seeded in a 96-well microplate at a density of 1 × 10^4 cells per well and were allowed to adhere to the wells overnight. […] The cells were exposed to the tested substances at concentrations ranging from 50, 25, 10, 5 and 1 μM. The treatment was conducted over three periods of 24 h, 48 h and 72 h, respectively. […] Lastly, the spent MTT medium was removed and DMSO was added to the wells, where the purple formazan crystals were solubilized, and the intensity of the purple hue was spectrophotometrically measured at 570 nm.
(§5) All values were represented as means ± standard deviations (n = 3). […] The IC50 values were further subjected to one-way ANOVA analysis along with the post hoc test to determine the statistical significance between the treatment groups and the negative control (untreated cells).

[3] = test system: MCF7 and SW480 cancer cells; assay: MTT cell viability assay, both cancer cell lines; assay type: cell-based, human
Experimental: as §1, §2, §3

[4] = test system: SW480 colon cancer; assay: MTT cell viability assay, SW480; assay type: cell-based, human; conditions: for Selectivity Index (SI), SW480: SI = IC50 L6 / IC50 SW480; for IC50: Homo sapiens, SW480, mean ± SD, n = 3, read-out: Anticancer Activity IC50, SW480
Experimental: as §1, §4, §5

[5] = 72 h treatment period, NA = IC50 beyond the tested concentration range (1-50 µM)

SMILES	melting point	IC50 ([1]; 24 h treatment period)	IC50 ([1]; 48 h treatment period)	IC50 ([1]; 72 h treatment period)	Selectivity Index (SI), MCF-7 ([2]; 24 h)	Selectivity Index (SI), MCF-7 ([2]; 48 h)	Selectivity Index (SI), MCF-7 ([2]; 72 h)	IC50 ([2]; 24 h treatment period)	IC50 ([2]; 48 h treatment period)	IC50 [2, 5]	cytotoxicity towards MCF7 compared with SW480 (in words) ([3]; breast cancer cell line MCF7 versus colon cancer cell line SW480)	Selectivity Index (SI), SW480 ([4]; 24 h)	Selectivity Index (SI), SW480 ([4]; 48 h)	Selectivity Index (SI), SW480 ([4]; 72 h)	IC50 ([4]; 24 h treatment period)	IC50 ([4]; 48 h treatment period)	IC50 ([4]; 72 h treatment period)	toxicity towards both MCF7 and SW480 cancer cells (in words) ([3]; 24, 48 and 72 h of incubation)	IC50 ([3]; Homo sapiens, MCF7 and SW480, span over 24, 48 and 72 h, read-out: IC50 range towards both cancer cell lines)
c1cc(CN2c3cnccc3Sc3cccnc32)nc(CN2c3cnccc3Sc3cccnc32)c1 [2c, 2,6-bis((dipyrido[3,2-b:3′,4′-e][1,4]thiazin-10-yl)methyl)pyridine]	266 to 268 °C	17.6 ± 0.85 µM	19.23 ± 0.13 µM	18 ± 0.18 µM	0.76	1.91	1.80	23.2 ± 0.33 µM	10.02 ± 0.05 µM	9.96 ± 0.03 µM	higher cytotoxicity	1.02	0.91	1.12	17.2 ± 1.46 µM	21.1 ± 0.99 µM	15.9 ± 1.48 µM	–	–
c1ccc(CN2c3ccncc3Sc3ccncc32)c(CN2c3ccncc3Sc3ccncc32)c1 [3a, 1,2-bis((dipyrido[3,4-b:3′,4′-e][1,4]thiazin-10-yl)methyl)benzene]	280 to 282 °C	30.8 ± 0.47 µM	21.7 ± 0.48 µM	21.41 ± 0.17 µM	6.46	6.85	3.51	4.77 ± 0.84 µM	3.17 ± 0.13 µM	6.1 ± 1.33 µM	–	5.02	5.22	4.69	6.12 ± 0.21 µM	4.16 ± 0.08 µM	4.56 ± 1.18 µM	significantly toxic	3.17 to 6.12 µM
